Source: patent US12077503B2, “Substituted cyclic amides and their use as herbicides” (FMC CORPORATION, priority 2015, dated 2024)

Key:
Type in all cases: in vivo
[1] = tested on: ryegrass, Italian (Italian ryegrass, Lolium multiflorum); assay: Test A preemergence
How it was run: (§1)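 Compounds were formulated in a non-phytotoxic solvent mixture with surfactant and applied as a preemergence directed soil spray after seeding, or sprayed postemergence over plants 2 to 10 cm tall at the one- to two-leaf stage. Evaluation after about 10 d compared treated with untreated controls, using a scale from 0 (no effect) to 100 (complete control).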

[2] = tested on: ragweed (common ragweed, Ambrosia elatior); assay: Test A preemergence
How it was run: as §1

[3] = tested on: giant foxtail (Setaria faberii); assay: Test A preemergence
How it was run: as §1

[4] = tested on: barnyardgrass (Echinochloa crus-galli); assay: Test A preemergence
How it was run: as §1

Kochia (Kochia scoparia) [5] = assay: Test A preemergence
How it was run: as §1

[6] = tested on: pigweed (Amaranthus retroflexus); assay: Test A preemergence
[7] = tested on: pigweed (Amaranthus retroflexus); assay: Test C preemergence; conditions: for Plant response rating (scale of 0 to 100), Pigweed: 0 is no effect, 100 is complete control; for Plant response rating, Pigweed: scale 0 to 100, 0 no effect, 100 complete control
How it was run: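 Visual rating, 0–100 scale (0 = no effect, 100 = complete control) versus controls, 13–15 d after treatment. Compounds in non-phytotoxic solvent plus surfactant; applied preemergence to seeds in loam/sand soil or postemergence to 1- to 4-leaf plants (2–18 cm) in peat/vermiculite medium; greenhouse-held.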

[8] = tested on: barnyardgrass (Echinochloa crus-galli); assay: Test B flooded paddy test; conditions: Flood, 250 g ai/ha; 0 to 100 scale where 0 is no effect and 100 is complete control; 13 to 15 d
How it was run: (§2)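 2-leaf plants; pots flooded 3 cm over soil; cpd added to paddy water; depth held; greenhouse 13–15 d; visual rating vs controls, 0 = no effect, 100 = complete control.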

[9] = tested on: sedge, umbrella (small-flower umbrella sedge, Cyperus difformis); assay: Test B flooded paddy test; conditions: Flood, 250 g ai/ha
How it was run: as §2

rice (Oryra sativa) = assay: Test B flooded paddy test; conditions: Flood, 250 g ai/ha; 0 to 100 scale where 0 is no effect and 100 is complete control; 13 to 15 d
How it was run: as §2

[10] = tested on: ducksalad (Heteranthera limosa); assay: Test B flooded paddy test; conditions: Flood, 250 g ai/ha; 0 to 100 scale where 0 is no effect and 100 is complete control; 13 to 15 d
How it was run: as §2

[11] = tested on: blackgrass (Alopecurus myosuroides); assay: Test A postemergence; conditions: postemergence, 0 to 100 scale (0 no effect, 100 complete control)
How it was run: as §1

[12] = tested on: Galium (catchweed bedstraw, Galium aparine); assay: Test A postemergence; conditions: postemergence, 0 to 100 scale (0 no effect, 100 complete control)
How it was run: as §1

[13] = tested on: ryegrass, Italian (Italian ryegrass, Lolium multiflorum); assay: Test A postemergence; conditions: postemergence, 0 to 100 scale (0 no effect, 100 complete control)
How it was run: as §1

[14] = tested on: ragweed (common ragweed, Ambrosia elatior); assay: Test A postemergence; conditions: postemergence, 0 to 100 scale (0 no effect, 100 complete control)
How it was run: as §1

[15] = tested on: giant foxtail (Setaria faberii); assay: Test A postemergence; conditions: postemergence, 0 to 100 scale (0 no effect, 100 complete control)
How it was run: as §1

corn (Zea mays) = assay: Test A postemergence; conditions: postemergence, 0 to 100 scale (0 no effect, 100 complete control)
How it was run: as §1

[16] = tested on: barnyardgrass (Echinochloa crus-galli); assay: Test A postemergence; conditions: postemergence, 0 to 100 scale (0 no effect, 100 complete control)
How it was run: as §1

[17] = tested on: wheat (Triticum aestivum); assay: Test A postemergence; conditions: postemergence, 0 to 100 scale (0 no effect, 100 complete control)
How it was run: as §1

Kochia (Kochia scoparia) [18] = assay: Test A postemergence; conditions: postemergence, 0 to 100 scale (0 no effect, 100 complete control)
How it was run: as §1

[19] = tested on: pigweed (Amaranthus retroflexus); assay: Test A postemergence; conditions: postemergence, 0 to 100 scale (0 no effect, 100 complete control)
How it was run: as §1

[20] = 125 g ai/ha, Preemergence, visual injury after approximately 10 d, 0 to 100 scale where 0 is no effect and 100 is complete control
[21] = 500 g ai/ha, preemergence, 0 to 100 scale, 0 = no effect, 100 = complete control
[22] = 125 g ai/ha, visual rating after approx. 10 d
[23] = 500 g ai/ha, visual injury, approx. 10 d
[24] = 125 g ai/ha, preemergence, visual rating after approx. 10 d, 0 to 100 scale where 0 is no effect and 100 is complete control
[25] = 125 g ai/ha, visual injury after approximately 10 d

| Compound | Plant response rating, Ryegrass, Italian [1, 21] | Plant response rating, Ragweed [2, 21] | Plant response rating, Foxtail, Giant [3, 20] | Plant response rating, Foxtail, Giant [3, 21] | Plant response rating, Barnyardgrass [4, 20] | Plant response rating, Barnyardgrass [4, 21] | Plant response rating, Kochia (Kochia (Kochia scoparia) [5]; [20]) | Plant response rating, Kochia (Kochia (Kochia scoparia) [5]; [21]) | Plant response rating, Pigweed [6, 21] | Plant response rating (scale of 0 to 100), Pigweed ([7]; 31 g ai/ha) | Plant response rating, Pigweed ([7]; 62 g ai/ha) | Plant response rating, Barnyardgrass [8] | Plant response rating, Rice (rice (Oryra sativa)) | Plant response rating, Ducksalad [10] | Plant response rating, Blackgrass [11, 22] | Plant response rating, Blackgrass [11, 23] | Plant response rating, Galium [12, 23] | Plant response rating, Ryegrass, Italian [13, 23] | Plant response rating, Ragweed [14, 23] | Plant response rating, Foxtail, Giant [15, 23] | other results |
| --- | --- | --- | --- | --- | --- | --- | --- | --- | --- | --- | --- | --- | --- | --- | --- | --- | --- | --- | --- | --- | --- |
| CN1CC(c2cc(F)cc(F)c2)C(C(=O)Nc2ccc(F)c(F)c2F)C1=O (centres unmarked) [Compound 646] | 90 | 70 | 90 | 100 | 90 | 90 | 60 | 70 | 70 | 0 | 10 | 80 | 25 | 98 | 70 | 80 | 50 | 70 | 40 | 90 | Plant response rating, Ryegrass, Italian [1, 20]: 60; Plant response rating, Ragweed [2, 20]: 60; Plant response rating, Pigweed [6, 20]: 60; Plant response rating, Pigweed ([7]; 125 g ai/ha): 65; Plant response rating, Pigweed ([7]; 250 g ai/ha): 75; Plant response rating, Sedge, Umbrella ([9]; 0 to 100 scale where 0 is no effect and 100 is complete control, 13 to 15 d): 0; Plant response rating, Galium [12, 22]: 40; Plant response rating, Ryegrass, Italian [13, 22]: 60; Plant response rating, Ragweed [14, 22]: 0; Plant response rating, Foxtail, Giant [15, 22]: 90; Plant response rating, Corn (corn (Zea mays); [22]): 70; Plant response rating, Corn (corn (Zea mays); [23]): 80; Plant response rating, Barnyardgrass [16, 22]: 90; Plant response rating, Barnyardgrass [16, 23]: 90; Plant response rating, Wheat [17, 22]: 40; Plant response rating, Wheat [17, 23]: 70; Plant response rating, Kochia (Kochia (Kochia scoparia) [18]; [22]): 60; Plant response rating, Kochia (Kochia (Kochia scoparia) [18]; [23]): 70; Plant response rating, Pigweed [19, 22]: 20; Plant response rating, Pigweed [19, 23]: 20 |
| CN1CC(c2ccc(C(C)(F)F)cc2)C(C(=O)Nc2cccc(F)c2F)C1=O (centres unmarked) [Compound 690] | 70 | 80 | 90 | 90 | 90 | 90 | 80 | 90 | 90 | 75 | 90 | 50 | 0 | 75 | 60 | 70 | 70 | 60 | 70 | 80 | Plant response rating, Ryegrass, Italian [1, 24]: 60; Plant response rating, Ragweed [2, 24]: 70; Plant response rating, Pigweed [6, 24]: 80; Plant response rating (scale of 0 to 100), Pigweed ([7]; 8 g ai/ha): 50; Plant response rating (scale of 0 to 100), Pigweed ([7]; 16 g ai/ha): 60; Sedge, Umbrella plant response rating ([9]; scale of 0 to 100 where 0 is no effect and 100 is complete control): 0; Plant response rating, Galium [12, 25]: 70; Plant response rating, Ryegrass, Italian [13, 25]: 50; Plant response rating, Ragweed [14, 25]: 60; Plant response rating, Foxtail, Giant [15, 25]: 80; Plant response rating, Corn (corn (Zea mays); [25]): 70; Plant response rating, Corn (corn (Zea mays); [23]): 80; Plant response rating, Barnyardgrass [16, 22]: 80; Plant response rating, Barnyardgrass [16, 23]: 80; Plant response rating, Wheat [17, 25]: 50; Plant response rating, Wheat [17, 23]: 60; Plant response rating, Kochia (Kochia (Kochia scoparia) [18]; [25]): 50; Plant response rating, Kochia (Kochia (Kochia scoparia) [18]; [23]): 70; Plant response rating, Pigweed [19, 25]: 60; Plant response rating, Pigweed [19, 23]: 70 |
